Patent publication US20130244879A1, “USE OF LIPO-CHITOOLIGOSACCHARIDES TO INITIATE EARLY FLOWERING AND FRUIT DEVELOPMENT IN PLANTS AND RELATED METHODS AND COMPOSITIONS” (NOVOZYMES BIOLOGICALS HOLDING A/S, priority 2003, published 2013)

What was measured:
Arabidopsis thaliana = assay: Experiments 3 and 4: effect of LCO on flowering in Arabidopsis thaliana; assay type: in vivo; settings: vs surfactant treated plants
Method: Two experiments were performed to investigate effect of LCO on plant's flowering using experimental model plant Arabidopsis thaliana. Plants were treated with various a range of LCO concentrations. […] The LCO treated plants reached over 80% of plants with open flowers 4 days earlier than control, surfactant treated plants. LCO induced faster and more uniform flowering.

tomato crop = assay: Trial 3: summer field trial, foliar LCO on tomato yield; assay type: in vivo; settings: for advanced fruiting over control: single application
Method: An investigation was conducted to examine whether foliar applications of LCO led to increased yield in tomato crop production. To determine concentrations or strengths to be applicable, testing was conducted with a logarithmic increase in strength from 1 nanogram (ng) to 1000 ng/plant sprayed once, and on half, twice. The trial results are presented in the following FIGS. 11-13 and Tables 6 and 7. The parameter of interest was ripened fruit which was harvested 2 or 3 times a week, recording each time, both fruit weight and number of fruit per set of replicates. It was known that fruit arise from pollinated flowers and that an increase in the one leads to the other. FIG. 11 records, cumulative harvested (red) fruit per treatment. For the single LCO application it will be seen that the 10 and 100 ng/plant treatments have advanced fruiting by some 10 days over control (horizontal separation in weeks). That advance has allowed the plant to bear and ripen more fruit over the season for these treatments (see FIG. 11 note height over control and Tables 6 and 7 for actual weights and numbers harvested). Table 6 and FIG. 12 record harvested weight and numbers of ripened fruit over season and it can be seen that the average weight of the tomatoes is not different between treatments and control. Thus the increase in harvested weight was due to an increase in numbers harvested, in agreement with actual enumeration.

greenhouse tomatoes = assay: Experiment 11: LCO foliar application in greenhouse tomatoes; assay type: in vivo, tomato; settings: 28 days after transplant
Method: Tomatoes were seeded and transplanted into 10″ pots 30 days later in the greenhouse. Plants were sprayed with 5 ml (50 ng) LCO solution per plant 10 days after transplant and 14 days after transplant (50 ng×2). Flowering data was collected 28 days after transplant. The same plants as FIG. 2-1 were sampled for fruit data 28 days after transplant.

Cherry tomato = assay: Experiment 14: LCO soil application on cherry tomatoes; assay type: in vivo
Method: Cherry tomato seedlings (5-week old) were transplanted into 5″ pots in the greenhouse. LCO solutions were prepared with water and 50 ml/plant was applied to the soil in the pot after transplantation. Ripened fruit (orange or red) were collected 8 weeks after transplantation.

Tomato = assay: Experiment 6: foliar application of LCO at variable growth stages, field tomato; assay type: in vivo; parameters: Fruit # % vs. control / % of weight vs. control: concentration or dose not given beside the values
Description: Tomato seedlings (6-leaf stage) were transplanted in farmland. The plants were watered on the day that they were transplanted and whenever the soil was very dry during the season. Fertilizer (20-20-20) was applied at 250 kg/ha to the tomato field before transplantation. All tomato plants were supported by sticks when they were heavily loaded with fruit. Fruit yield (in the table) was finally cumulated at the end of the season.

[1] = 1 ng LCO per plant, applied once
[2] = 1 ng LCO per plant, applied twice
[3] = 10 ng LCO per plant, applied once
[4] = 10 ng LCO per plant, applied twice
[5] = 100 ng LCO per plant, applied once
[6] = 100 ng LCO per plant, applied twice
[7] = 1000 ng LCO per plant, applied once
[8] = 1000 ng LCO per plant, applied twice
[9] = single application of 10 ng LCO/plant
[10] = LCO applied 10 + 20 + 30 + 40 + 50 DATP
[11] = LCO applied 10 + 20 + 30 + 40 DATP

Lipo-chitooligosaccharides [LCO]
reached over 80% of plants with open flowers earlier than control (Arabidopsis thaliana): 4 days | Increase in No. of Tomatoes from 1 to 2 applications (tomato crop; 1 ng LCO per plant): 21 | Yield Increase for 2nd Application (tomato crop; 1 ng LCO per plant): 0.00 Kg per plant | Cumulative Harvest to Sept 23. (24 plant Average) (tomato crop; [1]): Not as good as Control | Cumulative Yield (kg) to Sept 23. Total weight for 24 plants (tomato crop; [1]): 57.7200 kg | Total No. of Tomatoes per treatment (tomato crop; [1]): 300 | Yield increase over Control (tomato crop; [1]): 0.0000 Kg per plant | Cumulative Harvest to Sept 23. (24 plant Average) (tomato crop; [2]): Not as good as Control | Cumulative Yield (kg) to Sept 23. Total weight for 24 plants (tomato crop; [2]): 63.8760 kg | Total No. of Tomatoes per treatment (tomato crop; [2]): 321 | Increase in No. of Tomatoes from 1 to 2 applications (tomato crop; 10 ng LCO per plant): 11 | Yield Increase for 2nd Application (tomato crop; 10 ng LCO per plant): 0.08 Kg per plant | Cumulative Harvest to Sept 23. (24 plant Average) (tomato crop; [3]): 3.0093 Kg per plant | Cumulative Yield (kg) to Sept 23. Total weight for 24 plants (tomato crop; [3]): 72.2240 kg | Percent Yield inc. over Control (tomato crop; [3]): 17.7% | Total No. of Tomatoes per treatment (tomato crop; [3]): 363 | Yield increase over Control (tomato crop; [3]): 0.4517 Kg per plant | Cumulative Harvest to Sept 23. (24 plant Average) (tomato crop; [4]): 3.0905 Kg per plant | Cumulative Yield (kg) to Sept 23. Total weight for 24 plants (tomato crop; [4]): 74.1720 kg | Percent Yield inc. over Control (tomato crop; [4]): 12.6% | Total No. of Tomatoes per treatment (tomato crop; [4]): 374 | Yield increase over Control (tomato crop; [4]): 0.3452 Kg per plant | Increase in No. of Tomatoes from 1 to 2 applications (tomato crop; 100 ng LCO per plant): −8 | Yield Increase for 2nd Application (tomato crop; 100 ng LCO per plant): 0.06 Kg per plant | Cumulative Harvest to Sept 23. (24 plant Average) (tomato crop; [5]): 2.7280 Kg per plant | Cumulative Yield (kg) to Sept 23. Total weight for 24 plants (tomato crop; [5]): 65.4720 kg | Percent Yield inc. over Control (tomato crop; [5]): 6.7% | Total No. of Tomatoes per treatment (tomato crop; [5]): 351 | Yield increase over Control (tomato crop; [5]): 0.1703 Kg per plant | Cumulative Harvest to Sept 23. (24 plant Average) (tomato crop; [6]): 2.7917 Kg per plant | Cumulative Yield (kg) to Sept 23. Total weight for 24 plants (tomato crop; [6]): 67.0000 kg | Percent Yield inc. over Control (tomato crop; [6]): 1.7% | Total No. of Tomatoes per treatment (tomato crop; [6]): 343 | Yield increase over Control (tomato crop; [6]): 0.0463 Kg per plant | Increase in No. of Tomatoes from 1 to 2 applications (tomato crop; 1000 ng LCO per plant): 35 | Yield Increase for 2nd Application (tomato crop; 1000 ng LCO per plant): 0.35 Kg per plant | Cumulative Harvest to Sept 23. (24 plant Average) (tomato crop; [7]): 2.6115 Kg per plant | Cumulative Yield (kg) to Sept 23. Total weight for 24 plants (tomato crop; [7]): 62.6760 kg | Percent Yield inc. over Control (tomato crop; [7]): 2.1% | Total No. of Tomatoes per treatment (tomato crop; [7]): 326 | Yield increase over Control (tomato crop; [7]): 0.0538 Kg per plant | Cumulative Harvest to Sept 23. (24 plant Average) (tomato crop; [8]): 2.9588 Kg per plant | Cumulative Yield (kg) to Sept 23. Total weight for 24 plants (tomato crop; [8]): 71.0120 kg | Percent Yield inc. over Control (tomato crop; [8]): 7.8% | Total No. of Tomatoes per treatment (tomato crop; [8]): 361 | Yield increase over Control (tomato crop; [8]): 0.2135 Kg per plant | increase in numbers of tomatoes (tomato crop; [9]): ~20% | yield increase over the season (tomato crop; [9]): 17% | advanced fruiting over control (tomato crop; 10 ng/plant): ~10 days | advanced fruiting over control (tomato crop; 100 ng/plant): ~10 days | tomato early flowering (greenhouse tomatoes; 50 ng/plant single or double): improved tomato early flowering | increased fruit set (greenhouse tomatoes; single 50 ng LCO application): approx. 1 fruit/plant | dose with best fruit enhancement at the early stage (Cherry tomato): 10 ng per plant | % of weight vs. control (Tomato; [10]): 27.8% | Average Weight (g/fruit) (Tomato; [10]): 126.8 g/fruit | Fruit # % vs. control (Tomato; [10]): 38.41% | Fruit on 24 plants (Tomato; [10]): 1373a | Weight (kg) per 24 plants (Tomato; [10]): 174.07a kg | % of weight vs. control (Tomato; [11]): 12.0% | Average Weight (g/fruit) (Tomato; [11]): 128.0 g/fruit | Fruit # % vs. control (Tomato; [11]): 20.06% | Fruit on 24 plants (Tomato; [11]): 1191abc | Weight (kg) per 24 plants (Tomato; [11]): 152.50ab kg | % of weight vs. control (Tomato; LCO applied 10 + 20 + 30 DATP): 18.9% | Average Weight (g/fruit) (Tomato; LCO applied 10 + 20 + 30 DATP): 126.3 g/fruit | Fruit # % vs. control (Tomato; LCO applied 10 + 20 + 30 DATP): 29.23% | Fruit on 24 plants (Tomato; LCO applied 10 + 20 + 30 DATP): 1282ab | Weight (kg) per 24 plants (Tomato; LCO applied 10 + 20 + 30 DATP): 161.89ab kg | % of weight vs. control (Tomato; LCO applied 10 + 20 DATP): 12.7% | Average Weight (g/fruit) (Tomato; LCO applied 10 + 20 DATP): 136.4 g/fruit | Fruit # % vs. control (Tomato; LCO applied 10 + 20 DATP): 13.41% | Fruit on 24 plants (Tomato; LCO applied 10 + 20 DATP): 1125bc | Weight (kg) per 24 plants (Tomato; LCO applied 10 + 20 DATP): 153.43ab kg | % of weight vs. control (Tomato; LCO applied 10 DATP (7/4)): 10.8% | Average Weight (g/fruit) (Tomato; LCO applied 10 DATP (7/4)): 118.2 g/fruit | Fruit # % vs. control (Tomato; LCO applied 10 DATP (7/4)): 28.63% | Fruit on 24 plants (Tomato; LCO applied 10 DATP (7/4)): 1276ab | Weight (kg) per 24 plants (Tomato; LCO applied 10 DATP (7/4)): 150.88ab kg | % of weight vs. control (Tomato; LCO applied 20 DATP (7/15)): 20.3% | Average Weight (g/fruit) (Tomato; LCO applied 20 DATP (7/15)): 130.0 g/fruit | Fruit # % vs. control (Tomato; LCO applied 20 DATP (7/15)): 27.02% | Fruit on 24 plants (Tomato; LCO applied 20 DATP (7/15)): 1260ab | Weight (kg) per 24 plants (Tomato; LCO applied 20 DATP (7/15)): 163.78ab kg | % of weight vs. control (Tomato; LCO applied 30 DATP (7/25)): 17.6% | Average Weight (g/fruit) (Tomato; LCO applied 30 DATP (7/25)): 133.5 g/fruit | Fruit # % vs. control (Tomato; LCO applied 30 DATP (7/25)): 20.87% | Fruit on 24 plants (Tomato; LCO applied 30 DATP (7/25)): 1199abc | Weight (kg) per 24 plants (Tomato; LCO applied 30 DATP (7/25)): 160.11ab kg | % of weight vs. control (Tomato; LCO applied 40 DATP (8/8)): 14.5% | Average Weight (g/fruit) (Tomato; LCO applied 40 DATP (8/8)): 118.3 g/fruit | Fruit # % vs. control (Tomato; LCO applied 40 DATP (8/8)): 32.86% | Fruit on 24 plants (Tomato; LCO applied 40 DATP (8/8)): 1318ab | Weight (kg) per 24 plants (Tomato; LCO applied 40 DATP (8/8)): 155.89ab kg | % of weight vs. control (Tomato; LCO applied 50 DATP (8/18)): 13.6% | Average Weight (g/fruit) (Tomato; LCO applied 50 DATP (8/18)): 138.7 g/fruit | Fruit # % vs. control (Tomato; LCO applied 50 DATP (8/18)): 12.40% | Fruit on 24 plants (Tomato; LCO applied 50 DATP (8/18)): 1115bc | Weight (kg) per 24 plants (Tomato; LCO applied 50 DATP (8/18)): 154.62ab kg | increased fruit number compared to untreated control (Tomato; best of 9 treatments): up to 38.4% | increased total fruit weight compared to untreated control (Tomato; best of 9 treatments): up to 27.8%
